Assay results from patent US20250205204A1, “Transcription Factor Brn2 Inhibitory Compounds for Use as Therapeutics” (The University of British Columbia, priority 2021, published 2025).
Entries after “also recorded” stand apart in the source; their conditions may differ.

Columns and labels:
42D^ENZR cells = experiment: Cell proliferation, BRN2 expressing 42D cells (crystal violet); type: cell-based; settings: about 72 hours; for Growth Specificity: 42D (express BRN2) versus 16D (no BRN2) cells, result in words; for IC50: 42D cells, proliferation, read-out: 42D IC50
Method: (§1) Step 3: Cell Proliferation
(§2) Plate 42DE^NZR (˜7000 cells per well) and 16D^CRPC (˜5000 cells per well) cells in 96 well plate with a volume of 100 μL per well. • 2. Next day 1 mL aliquots of media are combined with 3× the desired concentration of compounds. The aliquots are vortexed and 50 μL of each 3× concentration is added to the 100 μL of media in each well to give the ix desired concentration.
(§3) The following are the desired concentrations:
(§4) Approximately 72 hours later, 17 μL of 10% Glutaraldehyde is added to each well and plates are placed on a shaker for 20-30 minutes. • 4. Media is washed off the fixed cells by slow submersion in a container of water. Then the water is removed by tapping the plate upside down. • 5. 75 μL of Crystal Violet™ solution is added into the 96 well plates and placed on a shaker for ˜30 minutes. • 6. Media is washed off the fixed cells by repeated slow submersion in a container of water and the plates are allowed to dry over-night. • 7. Next day, 75 μL of Sorensen Solution is accurately pipetted into each well. The plates placed on a shaker for ˜30 minutes. • 8. Absorbance is measured in the plate at 590 nm.
There is a distinction in TABLES 1 and 2 difference between “Active” and “Specific” or “Specificity”.

16D^CRPC cells = experiment: Cell proliferation, 16D cells that do not express BRN2 (crystal violet); type: cell-based; settings: for effect on 16D: result in words; for concentration above which 16D is affected: proliferation
Method: as §1, §2, §3
as §4, with “0, 10 nM, 100 nM, 500 nM, 1 μM, 2.5 μM, 5 μM, 10 μM, 15 μM, 20 μM, 30 μM. • 3. Approximately” for “Approximately”, “nm. Compounds that Show Specificity Towards 42DE^NZR Cells Vs 16D^CRPC Cells Progress to Step 4.” for “nm.”
(§5) In TABLES 1 and 2, in columns Met Stab % and T½, refers to compound's stability in MLM. There is a distinction in TABLES 1 and 2 difference between “Active” and “Specific” or “Specificity”. Some of the compounds were first tested to quantify inhibition of BRN2 transcriptional activity in a luciferase assay to determine BRN2 inhibition at 10 μM and 30 μM concentrations. […] Generally, compounds having low inhibitory activity were compounds with less than about ˜30% or activation at either concentration (i.e. 10 μM or 30 μM). Furthermore, some compounds that lacked specificity could also show off-target effects.

BRN2 = molecular target: T1, BRN2 (Homo sapiens, UniProt P20265); experiment: BLI binding; settings: result in words
T1 sequence (P20265 1-443): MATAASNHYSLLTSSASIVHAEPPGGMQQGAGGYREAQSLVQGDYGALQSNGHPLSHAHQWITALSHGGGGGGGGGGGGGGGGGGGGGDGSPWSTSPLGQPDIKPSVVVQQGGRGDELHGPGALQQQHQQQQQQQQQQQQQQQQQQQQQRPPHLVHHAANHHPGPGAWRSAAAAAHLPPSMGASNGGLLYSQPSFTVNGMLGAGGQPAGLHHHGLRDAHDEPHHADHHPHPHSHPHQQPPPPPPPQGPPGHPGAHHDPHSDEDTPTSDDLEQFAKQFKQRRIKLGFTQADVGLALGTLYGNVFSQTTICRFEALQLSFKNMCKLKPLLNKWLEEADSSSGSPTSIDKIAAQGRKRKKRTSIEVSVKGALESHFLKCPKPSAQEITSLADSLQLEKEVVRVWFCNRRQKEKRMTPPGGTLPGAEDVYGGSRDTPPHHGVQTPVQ

[1] = Metabolic stability in liver microsomes (MLM); type: in vitro ADME, mice; settings: 0.25 mg/mL protein; for half-life at 1 μM: mouse, liver microsomes, pH 7.4, 1 μM compound, read-out: T1/2 in mins (MLM); for Met Stab % (60 mins) MLM: percent remaining at 60 min, 1 μM compound, 1 mM NADPH
Method: Preparation of Potassium Phosphate Buffer, 50 mM (pH 7.4)
Potassium phosphate buffer (Kphos) was prepared by adding 0.647 g potassium phosphate monobasic (KH2PO4) and 3.527 g potassium phosphate dibasic (KH2PO4) to 400 mL of Milli-Q™ water. pH of the buffer was adjusted to 7.4 and volume was made up to 500 mL.
Preparation of Microsomes
Stock solutions of BRN2 inhibitors were prepared in DMSO at a concentration of 1 mM
Preparation of NADPH Solution
• Total Incubation volume: 100 μL • Compound concentration: 1 μM • Protein Concentration: 0.25 mg/mL • NADPH: 1 mM • Final DMSO contain: 0.1% • Number of replicates: 2 • Time points: 0, 5, 15, 30 and 60 min
From the above mix, 70 μL was added to individual wells of 96 well reaction plates and pre-incubated in a 37° C. water bath for 5 min. […] Reactions without NADPH and buffer controls (minus NADPH) at 0 min and 60 min were also incubated to rule out non-NADPH metabolism or chemical instability in the incubation buffer. All reactions were terminated using 100 μL of ice-cold acetonitrile containing internal standard at 0, 5, 15, 30 and 60 min.
Samples were monitored for parent compounds disappearance in MRM mode using LC-MS/MS.
The percent remaining of test compounds and positive control in each sample was determined by considering peak area ratio in the 0 minute sample as 100%. The Half-life of compounds in microsomes is calculated by formula: […]
In vitro intrinsic clearance (CL'int) (units in mL/min/kg) was calculated using the formula.
[formula] • For liver microsomes, scaling factor used was 45 mg microsomal protein per gm liver. • * Indicates liver weight (gm) which varies species wise. For mice the liver weights are 90 gm.

[2] = test system: BRN2 transcriptional activity; experiment: BRN2-luciferase reporter activity in 42D^ENZR cells; type: cell-based; settings: 24 hours
Source text: Step 1: Reporter Activity
Decreased expression of luciferase protein is validated via western blot to confirm downregulation and avoid false positive molecules that inhibit luciferase protein activity and not BRN2-drive luciferase expression. Molecules are prioritized by their inhibition potency to measure direct interaction with BRN2 in Step 2.
as §5

Compound | Growth Specificity (42D^ENZR cells) | IC50 (42D^ENZR cells) | effect on 16D (16D^CRPC cells) | BLI binding (BRN2) | half-life at 1 μM [1] | Met Stab % (60 mins) MLM [1] | concentration above which 16D is affected (16D^CRPC cells) | inhibition at 10 µM [2] | inhibition at 30 µM [2]
Fc1ccc2c(c1)CC/C2=N/Nc1nc2ccccc2s1 [7-57] | Specific to 42D | 10 µM | no effect on 16D | Positive | 8 min | 0% |  |  | 
Fc1cccc2nc(N/N=C3/CCc4ccccc43)sc12 [7-65] | Specific to 42D | 10 µM | no effect on 16D |  | 6 min | 0% |  |  | 
c1ccc2sc(N/N=C3/CCc4ccncc43)nc2c1 [7-66] | Specific to 42D | 10 µM | no effect on 16D |  | 8 min | 1% |  |  | 
O=C1/C(=N\Nc2nc3ccccc3s2)Cc2ccc(Cl)cc21 [7-72] | Specific to 42D at low doses |  |  |  | 17 min | 8% | > 15 µM |  | 
CC(C)Oc1ccc2c(c1)C/C(=N/Nc1nc3ccccc3s1)C2=O [7-73, (Z)-2-(2-(benzo[d]thiazol-2-yl)hydrazineylidene)-5-isopropoxy-2,3-dihydro-1H-inden-1-one] | Specific to 42D at low doses |  |  | Positive binding | 26 min | 19% | > 15 µM |  | 
CC(C)Oc1ccc2c(c1)C(=O)/C(=N\Nc1nc3ccccc3s1)C2 [7-74, (Z)-2-(2-(benzo[d]thiazol-2-yl)hydrazineylidene)-6-isopropoxy-2,3-dihydro-1H-inden-1-one] | Specific to 42D at low doses |  |  | Positive binding | 17 min | 6% | > 20 µM |  | 
O=C1/C(=N\Nc2nc3ccccc3s2)Cc2cc(C(F)(F)F)ccc21 [7-108] | Specific to 42D cells until 10 μM; also recorded: Specific to 42D cells up to 10 μM |  |  | Positive binding | > 60 min | 68% | > 15 µM |  | 
CN1/C(=N/Nc2nc3ccccc3s2)C(=O)c2ccccc21 [7-114] | precipitates |  |  | No binding | 44 min | 40% |  |  | 
CN1C(=O)/C(=N/Nc2nc3ccccc3s2)c2ccccc21 [7-115] | Not specific |  |  | No binding | 7 min | 2% |  |  | 
O=C1/C(=N\Nc2nc3ccccc3s2)Nc2cc(Br)ccc21 [7-116] | Not specific |  |  | No binding | > 60 min | 64% |  |  | 
CC(C)(C)OC(=O)c1ccc2c(c1)C(=O)/C(=N\Nc1nc3ccccc3s1)C2 [7-119] | Not specific |  |  | No binding | 27 min | 18% |  |  | 
Nc1ccc2c(c1)C/C(=N/Nc1nc3ccccc3s1)C2=O [7-120] | Not specific |  |  | No binding | 24 min | 17% |  |  | 
O=C1/C(=N\Nc2nc3ccccc3s2)Cc2cc(O)ccc21 [7-121] | Not specific |  |  | Positive binding | 36 min | 30% |  |  | 
CC(C)c1ccc2c(c1)C/C(=N/Nc1nc3ccccc3s1)C2=O [7-122] | Not specific |  |  | No binding | 10 min | 1% |  |  | 
O=C1/C(=N\Nc2nc3ccccc3s2)Nc2cc(F)ccc21 [7-123] | Not specific |  |  | No binding | 25 min | 18% |  |  | 
O=C1Nc2cc(F)ccc2/C1=N\Nc1nc2ccccc2s1 [7-124] | Not specific |  |  | No binding | 27 min | 21% |  |  | 
O=C1/C(=N\Nc2nc3ccccc3s2)Cc2c(Cl)cccc21 [7-125] | specific |  |  | No binding | 44 min | 36% |  |  | 
O=C1/C(=N\Nc2nc3ccccc3s2)Cc2c(F)cccc21 [7-126] | specific |  |  | binding | 15 min | 6% |  |  | 
CN(C)c1ccc2c(c1)C/C(=N/Nc1nc3ccccc3s1)C2=O [7-127] | Not specific |  |  | No binding | 23 min | 14% |  |  | 
c1ccc2c(c1)CC/C2=N\Nc1nc2ccccc2s1 [VPC-7] | 42D not 16D |  |  |  |  |  |  | 82.1% | 97.8%
c1ccc2c(c1)CC/C2=N\Nc1nc2ccccc2[nH]1 [VPC-8] | 42D and 16D non-specific |  |  |  |  |  |  | 84.5% | 96.1%
c1ccc2c(c1)CC/C2=N\Nc1ccc2ccccc2n1 [VPC-39] | non-specific |  |  |  |  |  |  | 99% | 99.9%
